Results on 23 compounds are retold here after ChEMBL document CHEMBL1201862, “PubChem BioAssay data set” (2004).

Each structure is given as a SMILES string.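 48-hour exposure; five concentrations; linearly interpolated endpoints. GI50 marks 50% less growth.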 The source made the active and inactive calls. Rule as the data show it: active = GI50 up to about 1.1 µM and inactive = higher. Non-standard residues stand in square brackets, D forms with d. Residues, ends and D or L forms follow the SMILES beside them. ξ: configuration not given here. *: point of attachment. NMeF = CN[C@@H](Cc1ccccc1)C(=O)O; ξNMeV = CNC(C(=O)O)C(C)C; Boc = CC(C)(C)OC(=O)*; OBn = c1ccc(CO*)cc1

Common to all, as to experiment: inhibition of tumour cell growth, NCI panel, 48 h
In assay [1] the test system is LXFL 529.
For assay [2], the system named is DMS-273.
The test system of assay [3] is M19-MEL.
Assay [4] relates to XF498.
Assay [5] relates to SNB-78.
For assay [6], the system named is DLD-1.
In assay [7] the test system is KM-20L2.
For assay [8], the system named is HOP-18.
In assay [9] the test system is RXF 631.

Consider `C=CCn1c(=S)sc2c(O)ncnc21`, for which the GI50 in [1], in assay [2], in [3], in [4], in [5] and in assay [6] was > 100 µM (inactive) in each case. The GI50 in [7] is > 100 µM (inactive).
With `Sc1nnc(-c2cccnc2)[nH]1`, the GI50 in [1], in assay [2], in assay [4], in assay [5], in [6] and in assay [8] was > 100 µM (inactive) in each case. In assay [7], the GI50 is > 100 µM (inactive).
Turning to `COC(=O)C(C(=O)C(=O)Nc1ccc([N+](=O)[O-])cc1)c1nc2ccc([N+](=O)[O-])cc2nc1O` (stereo not given), the GI50 in assay [1] is 43.5 µM (inactive); in [9], > 100 µM (inactive); in assay [2], > 100 µM (inactive); in assay [3] it was > 100 µM (inactive); in assay [5], > 100 µM (inactive); in [6] it was > 100 µM (inactive). Moreover, the GI50 in assay [8] and in assay [7] was > 100 µM (inactive) each time.
In the case of `COC(=O)C(Cc1nc2ccccc2nc1C)/C(=N\NC(N)=O)C(=O)Nc1cccc([N+](=O)[O-])c1` (stereo not given), the GI50 is 37.7 µM (inactive) in assay [1]; > 100 µM (inactive) in assay [9]; 37.9 µM (inactive) in assay [3]; > 100 µM (inactive) in assay [4]; > 100 µM (inactive) in assay [5]; > 100 µM (inactive) in assay [6]. For the same compound, the GI50 in assay [8] and in [7] was > 100 µM (inactive) each time.
For `Cc1ccc(N2C(=O)/C(=C3\Sc4c(nc(C)[nH]c4=O)N3c3ccccc3)SC2=S)cc1`, the GI50 in [1] was 18.5 µM (inactive); in assay [2] it was 34.6 µM (inactive); in assay [3] it was 63.5 µM (inactive); in [4], 20.9 µM (inactive); in assay [5], 39 µM (inactive); in assay [6] it was 91.2 µM (inactive). In addition, in assay [7], the GI50 is > 100 µM (inactive).
Take `COC(=O)C1=CC2CC1C(S(=O)(=O)c1ccccc1)C2S(=O)(=O)c1ccccc1` (stereo not given): the GI50 in assay [1] is 5.81 µM (inactive); in [9], 13.5 µM (inactive); in assay [2] it was 10.5 µM (inactive); in assay [3], 18.3 µM (inactive); in [6] it was 14.5 µM (inactive); in assay [8], 16.7 µM (inactive). In addition, in [7], the GI50 is 16.4 µM (inactive).
`CCOC(=O)/C(=C/c1cccc(OC)c1)N(CC)CC`: the GI50 in [1], in assay [2], in assay [3], in assay [4], in assay [5] and in assay [7] was > 100 µM (inactive) each time.
On to `C=CCCCCCC(O)C(O)C/C=C\C/C=C\CC` (stereo not given), for which the GI50 in assay [1], in assay [2], in assay [4], in assay [5], in [6] and in [8] was > 18.8 µM (inactive) throughout. Moreover, in assay [7], the GI50 was > 18.8 µM (inactive).
For the compound `Clc1cc2n[se]nc2cc1Cl`, the GI50 in assay [1], in assay [9], in assay [2], in [3], in assay [4] and in assay [5] was > 100 µM (inactive) throughout. Further, the GI50 in [6], in assay [8] and in assay [7] was > 100 µM (inactive) throughout.
As to `NC(=O)CCC(Nc1c2ccccc2nc2ccccc12)C(=O)O` (stereo not given), the GI50 in assay [1] was > 100 µM (inactive); in assay [9], 77.3 µM (inactive); in assay [2], > 100 µM (inactive); in assay [3], > 100 µM (inactive); in assay [6], 88.3 µM (inactive); in assay [7], > 100 µM (inactive).
For `O=C1c2ccccc2N2OC3(N4CCCC4)CCCC3C12c1ccccc1` (stereo not given), the GI50 is 67.8 µM (inactive) in [1]; 67.6 µM (inactive) in assay [2]; > 100 µM (inactive) in [3]; 92.3 µM (inactive) in assay [4]; > 100 µM (inactive) in [5]; > 100 µM (inactive) in assay [6]. Moreover, the GI50 in assay [8] and in [7] was > 100 µM (inactive) in each case.
For the compound `C1COCCN1.S=C(S)N1CCOCC1`, the GI50 was 1.34 µM (inactive) in assay [1]; 1.38 µM (inactive) in [2]; 1.25 µM (inactive) in assay [3]; 1.92 µM (inactive) in [4]; 41.5 µM (inactive) in assay [5]; 0.628 µM (active) in assay [6]. In addition, the results for the GI50 in assay [8] and in assay [7] were > 100 µM (inactive) and 1.43 µM (inactive), respectively.
On to `COc1cccc2c(SCC(=O)Nc3ccccc3-c3ccccc3NC(=O)CSc3c4ccccc4nc4c(OC)cccc34)c3ccccc3nc12`, for which the GI50 is 47.6 µM (inactive) in [9]; 71.3 µM (inactive) in [2]; 76.6 µM (inactive) in [4]; > 100 µM (inactive) in [5]; > 100 µM (inactive) in assay [6]; > 100 µM (inactive) in [7].
For `CCCC(N)C(=O)c1ccccc1` (stereo not given), the GI50 in assay [1], in assay [2], in [4], in assay [5], in assay [6] and in assay [8] was > 100 µM (inactive) in each case. Further, in [7], the GI50 was > 100 µM (inactive).
For the compound `CCOC(=O)c1cnc2[nH]c(=O)c3ccccc3n2c1=O`, the GI50 in [1], in [9], in [2], in [3], in [4] and in [5] was > 100 µM (inactive) in each case. In addition, the GI50 in assay [6], in assay [8] and in assay [7] was > 100 µM (inactive) in each case.
Consider `COC1=C(NC(C)=O)C(=O)c2nc3n(c2C1=O)CCC3`, for which the GI50 was 18.7 µM (inactive) in assay [2]; 19.1 µM (inactive) in assay [4]; 13 µM (inactive) in [5]; 15 µM (inactive) in assay [6]; 18.9 µM (inactive) in assay [8]; 38.3 µM (inactive) in assay [7].
Turning to `COc1ccc2nc3cc(Cl)ccc3c(Sc3ccc([N+](=O)[O-])cc3C)c2c1`, the GI50 in [1], in assay [2], in assay [3], in [4], in [5] and in assay [6] was > 100 µM (inactive) in each case. Further, the GI50 in assay [8] and in assay [7] was > 100 µM (inactive) in each case.
As for `NC1=NS(=O)(=O)Nc2nc(-c3ccc(Cl)cc3)c(-c3ccc(Cl)cc3)nc21`, the GI50 was 34.9 µM (inactive) in assay [1]; > 100 µM (inactive) in [9]; > 100 µM (inactive) in [2]; > 100 µM (inactive) in assay [3]; 69.3 µM (inactive) in [4]; > 100 µM (inactive) in assay [5]. Further, the GI50 in assay [6] and in [8] was > 100 µM (inactive) each time.
Consider `CC1=C(C(=O)Nc2c(C)cccc2C)C(c2ccc3c(c2)OCO3)C(C(=O)Nc2c(C)cccc2C)=C(C)N1`, for which the GI50 in [1] was 18 µM (inactive); in assay [9], 16.7 µM (inactive); in assay [5], 17.6 µM (inactive); in [6], 19.3 µM (inactive); in [8], 18.9 µM (inactive); in [7], 15.5 µM (inactive).
On to `CCCCCC(CN1CCOCC1)C(=O)/C=C/c1ccccc1` (stereo not given), for which the GI50 in assay [2] is 2.31 µM (inactive); in assay [3] it was 2.41 µM (inactive); in assay [4], 1.72 µM (inactive); in [5], 6.9 µM (inactive); in assay [7] it was 3.03 µM (inactive).
Turning to `CCN(CC)CCCCC1CCN(CC(=O)N2c3ccccc3NC(=O)c3ccccc32)CC1`, the GI50 in assay [1], in assay [9], in assay [2], in assay [3], in [4] and in assay [5] was > 100 µM (inactive) throughout. The GI50 in assay [6] is > 100 µM (inactive).
`[N-]=[N+]=NC1C(Cl)C(=O)NC(=O)N1[C@H]1C[C@H](O)[C@@H](CO)O1` (stereo not given in full): the GI50 in assay [1], in assay [9], in assay [2], in assay [4], in assay [5] and in [6] was > 100 µM (inactive) in each case. In assay [7], the GI50 is > 100 µM (inactive).
In the case of `CC(C)C(C(=O)N1CCC[C@@H]1C(=O)OCc1ccccc1)N(C)C(=O)C(C(C)C)N(C)C(=O)[C@H](Cc1ccccc1)N(C)C(=O)[C@H](NC(=O)OC(C)(C)C)C(C)C` (stereo not given in full) (Boc-[dV][NMeF][ξNMeV][ξNMeV][dP]-OBn), the GI50 in assay [1] is 8.81 µM (inactive); in [2], 42.9 µM (inactive); in [3], > 48.5 µM (inactive); in assay [4], > 68.5 µM (inactive); in assay [5], > 100 µM (inactive); in assay [6], > 100 µM (inactive). The GI50 in [8] and in assay [7] was > 100 µM (inactive) throughout.
